Where two headings read alike, the source gives them in different places.
Assays:
[1] = MTT assay for cell viability / cytotoxicity; format: cell-based; conditions: mouse, RAW 264.7 macrophages, means ± SD of three independent experiments
Description: In addition to NO inhibition, the cytotoxic activity of compounds 1a–i, 2a–i, 3a–h, and 4a–h in RAW 264.7 macrophages were measured using the 3-(4,5-dimethylthiazol-2-yl)-2,5-diphenyltetrazolium bromide (MTT) assay to check whether the effects on the production of NO was caused by nonspecific cytotoxicity.
(§1) Cell culture and sample treatment were performed as reported in the literature. The 3-(4,5-dimethylthiazol-2-yl)-2,5-diphenyltetrazolium bromide (MTT) assay for cell viability followed the procedure previously described in the literature. Nitrite determination was carried as described in the literature, and the PGE2 assay was carried as previously described.

[2] = system: LPS-induced RAW 264.7 macrophages; test: Nitric oxide (NO) production inhibition in LPS-induced RAW 264.7 macrophages (nitrite determination); format: cell-based; conditions: for inhibition at 1 µM: RAW264.7, 1 µM; for inhibition at 5 µM: RAW264.7, 5 µM; for inhibition at 10 µM: RAW264.7, 10 µM
Description: The ability of a certain molecule to inhibit the production of inflammatory mediator(s) is one of successful approach to treatment both chronic and acute inflammation.
as §1

[3] = Mus musculus, LPS-induced RAW 264.7 macrophages
[4] = Mus musculus, RAW264.7, nitric oxide production, means ± SD of three independent experiments, read-out: NO (IC50)

SMILES	IC50 [1]	melting point	inhibition at 1 µM [2, 3]	inhibition at 5 µM [2, 3]	inhibition at 10 µM [2, 3]	IC50 [2, 4]	Nitric Oxide % Inhibition ([2]; 10 µM, LPS-induced RAW 264.7 macrophages)	IC50 ([2]; Mus musculus, RAW264.7, read-out: NO (IC50))	inhibition at 40 µM ([2]; Mus musculus, RAW264.7, read-out: Nitric Oxide % Inhibition)
COc1cccc(-c2nn(-c3ccccc3)cc2-c2ccnc(NCCNS(=O)(=O)c3cccc(F)c3)c2)c1 [Compound 1h, 3-Fluoro-N-(2-((4-(3-(3-methoxyphenyl)-1-phenyl-1H-pyrazol-4-yl)pyridin-2-yl)amino)ethyl)benzenesulfonamide]	244.2 ± 2.23 µM	118 to 120 °C	11.12 ± 0.02%	26.2 ± 0.99%	41.2 ± 2.15%	12.6 ± 0.29 µM	–	–	–
O=S(=O)(NCCNc1cc(-c2cn(-c3ccccc3)nc2-c2cccc(O)c2)ccn1)c1ccc(F)cc1 [Compound 3d, 4-Fluoro-N-(2-((4-(3-(3-hydroxyphenyl)-1-phenyl-1H-pyrazol-4-yl)pyridin-2-yl)amino)ethyl)benzenesulfonamide]	26.6 ± 0.47 µM	106 to 108 °C	10.58 ± 0.09%	18.3 ± 0.26%	48.2 ± 0.74%	10.7 ± 0.52 µM	–	–	–
O=S(=O)(NCCCNc1cc(-c2cn(-c3ccccc3)nc2-c2cccc(O)c2)ccn1)c1ccc(C(F)(F)F)cc1 [Compound 4f, N-(3-((4-(3-(3-Hydroxyphenyl)-1-phenyl-1H-pyrazol-4-yl)pyridin-2-yl)amino)propyl)-4-(trifluoromethyl)benzenesulfonamide]	17.7 ± 0.61 µM	–	4.87 ± 0.14%	18.9 ± 1.02%	53.8 ± 1.87%	9.45 ± 0.15 µM	–	–	–
O=S(=O)(NCCCNc1cc(-c2cn(-c3ccccc3)nc2-c2cccc(O)c2)ccn1)c1ccc(Br)cc1 [Compound 4b, 4-Bromo-N-(3-((4-(3-(3-hydroxyphenyl)-1-phenyl-1H-pyrazol-4-yl)pyridin-2-yl)amino)propyl)benzenesulfonamide]	19.5 ± 0.49 µM	–	8.19 ± 0.06%	22.2 ± 0.72%	63.9%	8.34 ± 0.11 µM	63.82 ± 2.14%	–	–
Cc1ccc(S(=O)(=O)NCCNc2cc(-c3cn(-c4ccccc4)nc3-c3cccc(O)c3)ccn2)cc1 [Compound 3e, N-(2-((4-(3-(3-Hydroxyphenyl)-1-phenyl-1H-pyrazol-4-yl)pyridin-2-yl)amino)ethyl)-4-methylbenzenesulfonamide]	32.5 ± 0.75 µM	114 to 116 °C	7.15 ± 0.04%	12.4 ± 0.72%	31.4 ± 0.33%	16.1 ± 0.72 µM	–	–	–
O=S(=O)(NCCNc1cc(-c2cn(-c3ccccc3)nc2-c2cccc(O)c2)ccn1)c1ccc(Cl)cc1 [Compound 3c, 4-Chloro-N-(2-((4-(3-(3-hydroxyphenyl)-1-phenyl-1H-pyrazol-4-yl)pyridin-2-yl)amino)ethyl)benzenesulfonamide]	22.7 ± 0.3 µM	100 to 102 °C	6.34 ± 0.06%	11.7 ± 0.71%	33.8 ± 0.89%	15.2 ± 0.17 µM	–	–	–
O=S(=O)(NCCCNc1cc(-c2cn(-c3ccccc3)nc2-c2cccc(O)c2)ccn1)c1ccccc1 [Compound 4a, N-(3-((4-(3-(3-Hydroxyphenyl)-1-phenyl-1H-pyrazol-4-yl)pyridin-2-yl)amino)propyl)benzenesulfonamide]	16.6 ± 0.91 µM	154 to 156 °C	11.11 ± 0.1%	24.1 ± 0.56%	59.2 ± 1.31%	8.86 ± 0.36 µM	–	–	–
O=S(=O)(NCCNc1cc(-c2cn(-c3ccccc3)nc2-c2cccc(O)c2)ccn1)c1ccccc1 [Compound 3a, N-(2-((4-(3-(3-Hydroxyphenyl)-1-phenyl-1H-pyrazol-4-yl)pyridin-2-yl)amino)ethyl)benzenesulfonamide]	29.8 ± 1.91 µM	100 to 102 °C	4.78 ± 0.03%	21.5 ± 0.37%	49 ± 1.1%	10.3 ± 0.23 µM	–	–	–
COc1cccc(-c2nn(-c3ccccc3)cc2-c2ccnc(NCCCNS(=O)(=O)c3ccc(C)cc3)c2)c1 [Compound 2f, N-(3-((4-(3-(3-Methoxyphenyl)-1-phenyl-1H-pyrazol-4-yl)pyridin-2-yl)amino)propyl)-4-methylbenzenesulfonamide]	323 ± 3.35 µM	94 to 96 °C	4.36 ± 0.04%	19.8 ± 0.96%	46.3 ± 3.21%	9.16 ± 0.27 µM	–	–	–
O=S(=O)(NCCNc1cc(-c2cn(-c3ccccc3)nc2-c2cccc(O)c2)ccn1)c1ccc(C(F)(F)F)cc1 [Compound 3f, N-(2-((4-(3-(3-Hydroxyphenyl)-1-phenyl-1H-pyrazol-4-yl)pyridin-2-yl)amino)ethyl)-4-(trifluoromethyl)benzenesulfonamide]	–	–	6.08 ± 0.07%	15.2 ± 0.91%	36.5 ± 0.59%	22.2 ± 0.31 µM	–	–	–
O=S(=O)(NCCNc1cc(-c2cn(-c3ccccc3)nc2-c2cccc(O)c2)ccn1)c1cccc2ccccc12 [Compound 3h, N-(2-((4-(3-(3-Hydroxyphenyl)-1-phenyl-1H-pyrazol-4-yl)pyridin-2-yl)amino)ethyl)naphthalene-1-sulfonamide]	–	146 to 148 °C	–	–	–	–	–	–	–
COc1cccc(-c2nn(-c3ccccc3)cc2-c2ccnc(NCCCNS(=O)(=O)c3cccc4ccccc34)c2)c1 [Compound 2i, N-(3-((4-(3-(3-Methoxyphenyl)-1-phenyl-1H-pyrazol-4-yl)pyridin-2-yl)amino)propyl)naphthalene-1-sulfonamide]	–	134 to 136 °C	–	–	–	–	–	–	–
COc1cccc(-c2nn(-c3ccccc3)cc2-c2ccnc(NCCCNS(=O)(=O)c3ccc(C(F)(F)F)cc3)c2)c1 [Compound 2g, N-(3-((4-(3-(3-Methoxyphenyl)-1-phenyl-1H-pyrazol-4-yl)pyridin-2-yl)amino)propyl)-4-(trifluoromethyl)benzenesulfonamide]	252.6 ± 1.87 µM	–	2.91 ± 0.02%	26.3 ± 1.01%	56 ± 0.89%	10.5 ± 0.44 µM	–	–	–
COc1cccc(-c2nn(-c3ccccc3)cc2-c2ccnc(NCCNS(=O)(=O)c3cccc4ccccc34)c2)c1 [Compound 1i, N-(2-((4-(3-(3-Methoxyphenyl)-1-phenyl-1H-pyrazol-4-yl)pyridin-2-yl)amino)ethyl)naphthalene-1-sulfonamide]	–	178 to 180 °C	–	–	–	–	–	–	–
CC(=N)NCCCC[C@H](N)C(=O)O [L-NIL, N^6-(1-Iminoethyl)-L-lysine, reference compound]	–	–	–	–	–	–	–	29.32 ± 0.15 µM	77.9 ± 4.25%
COc1cccc(-c2nn(-c3ccccc3)cc2-c2ccnc(NCCCNS(=O)(=O)c3cccc(F)c3)c2)c1 [Compound 2h, 3-Fluoro-N-(3-((4-(3-(3-methoxyphenyl)-1-phenyl-1H-pyrazol-4-yl)pyridin-2-yl)amino)propyl)benzenesulfonamide]	246 ± 2.71 µM	–	4.87 ± 0.05%	24.1 ± 0.91%	41.5 ± 1.12%	9.19 ± 0.25 µM	–	–	–
O=S(=O)(NCCCNc1cc(-c2cn(-c3ccccc3)nc2-c2cccc(O)c2)ccn1)c1ccc(F)cc1 [Compound 4d, 4-Fluoro-N-(3-((4-(3-(3-hydroxyphenyl)-1-phenyl-1H-pyrazol-4-yl)pyridin-2-yl)amino)propyl)benzenesulfonamide]	12.6 ± 0.22 µM	–	9.02 ± 0.03%	20.8 ± 0.36%	48.5 ± 1.79%	11.3 ± 0.16 µM	–	–	–

Reference: publication PMC6222820, “Synthesis of New Triarylpyrazole Derivatives Possessing Terminal Sulfonamide Moiety and Their Inhibitory Effects on PGE2 and Nitric Oxide Productions in Lipopolysaccharide-Induced RAW 264.7 Macrophages” (Molecules : A Journal of Synthetic Chemistry and Natural …, 2018)
